Test system: skin
Test: Test for skin accumulated stimulus, HRIPT (Human repeated insult patch tests)
Format: in vivo
Parameters: key to skin reactivity (ICDRG criteria): −: negative (no response); ±: doubtful or slight erythema, etc.; +: weak reaction (which is accompanied with no phlyctenule), erythema, papule; ++: severe reaction (which is accompanied with phlyctenule), erythema, papule, phlyctenule; +++: strong reaction, bullae reaction
Settings: for Number of examinees who exhibited ±, +, or ++ reactivity, 1st: 1st patch; for Number of examinees who exhibited ±, +, or ++ reactivity, 2nd: 2nd patch; for Number of examinees who exhibited ±, +, or ++ reactivity, 3rd: 3rd patch; for Number of examinees who exhibited ±, +, or ++ reactivity, 4th: 4th patch; for Number of examinees who exhibited ±, +, or ++ reactivity, 5th: 5th patch; for Number of examinees who exhibited ±, +, or ++ reactivity, 6th: 6th patch; for Number of examinees who exhibited ±, +, or ++ reactivity, 7th: 7th patch; for Number of examinees who exhibited ±, +, or ++ reactivity, 8th: 8th patch; for average reactivity: 9 patches over 3 weeks, 15 examinees, less than 3 is considered a stable composition; for Number of examinees who exhibited ±, +, or ++ reactivity, 9th: 9th patch
Procedure: HRIPT (Human repeated insult patch tests) was conducted in order to identify skin accumulated stimulus of quercetin3-O-[3-O″-(E)-p-coumaroyl][β-D-glucopyranosyl-(1→3)-O-α-L-rhamnopyranosyl-(1→6)-O-β-D-glucopyranoside] and quercetin3-O-[3-O″-(E)-p-coumaroyl][α-L-rhamnopyranosyl-(1→6)-O-β-D-glucopyranoside] and to calculate the concentration range that can be used in skin. Specifically, 15 healthy adult examinees were randomly selected, and test compositions in which the compounds were respectively comprised in an amount of 0.5 wt. %, 1 wt. %, and 3 wt. % (the compositions for skin, comprising an emulsifying agent, a stabilizer, purified water, etc. in addition to the compounds) were dropped in the amount of 20 μl per chamber (IQ chamber, Epitest Ltd, Finland), and patched on the right site of the upper back of the examinees, and then, after 24 hours, the patch was replaced with a new patch. A total of 9 patches were conducted, three times a week for total 3 weeks, in such manner, the skin reactions before and after patch were examined every time, and the skin reactions until 48 hours after removing the final patch were observed, and the average reactivity was observed. The skin reaction was determined according to the criteria of International Contact Dermatitis Research Group (ICDRG). In the above table, “New Material 31” refers to quercetin3-O-[3-O″-(E)-p-coumaroyl][β-D-glucopyranosyl-(1→3)-O-α-L-rhamnopyranosyl-(1→6)-O-β-D-glucopyranoside], and “New Material 32” refers to quercetin3-O-[3-O″-(E)-p-coumaroyl][α-L-rhamnopyranosyl-(1→6)-O-β-D-glucopyranoside].

C[C@@H]1O[C@@H](OC[C@H]2O[C@@H](Oc3c(-c4ccc(O)c(O)c4)oc4cc(O)cc(O)c4c3=O)[C@H](O)[C@@H](OC(=O)/C=C/c3ccc(O)cc3)[C@@H]2O)[C@H](O)[C@H](O[C@@H]2O[C@H](CO)[C@@H](O)[C@H](O)[C@H]2O)[C@H]1O [New Material 31, quercetin3-O-[3-O″-(E)-p-coumaroyl][β-D-glucopyranosyl-(1→3)-O-α-L-rhamnopyranosyl-(1→6)-O-β-D-glucopyranoside]]
0 number: Number of examinees who exhibited ±, +, or ++ reactivity, 1st (0.5 wt. %, line 1 of 3 (±)) | Number of examinees who exhibited ±, +, or ++ reactivity, 1st (0.5 wt. %, line 2 of 3 (+)) | Number of examinees who exhibited ±, +, or ++ reactivity, 1st (0.5 wt. %, line 3 of 3 (++)) | Number of examinees who exhibited ±, +, or ++ reactivity, 2nd (0.5 wt. %, line 1 of 3 (±)) | Number of examinees who exhibited ±, +, or ++ reactivity, 2nd (0.5 wt. %, line 2 of 3 (+)) | Number of examinees who exhibited ±, +, or ++ reactivity, 2nd (0.5 wt. %, line 3 of 3 (++)) | Number of examinees who exhibited ±, +, or ++ reactivity, 3rd (0.5 wt. %, line 1 of 3 (±)) | Number of examinees who exhibited ±, +, or ++ reactivity, 3rd (0.5 wt. %, line 2 of 3 (+)) | Number of examinees who exhibited ±, +, or ++ reactivity, 3rd (0.5 wt. %, line 3 of 3 (++)) | Number of examinees who exhibited ±, +, or ++ reactivity, 4th (0.5 wt. %, line 1 of 3 (±)) | Number of examinees who exhibited ±, +, or ++ reactivity, 4th (0.5 wt. %, line 2 of 3 (+)) | Number of examinees who exhibited ±, +, or ++ reactivity, 4th (0.5 wt. %, line 3 of 3 (++)) | Number of examinees who exhibited ±, +, or ++ reactivity, 5th (0.5 wt. %, line 1 of 3 (±)) | Number of examinees who exhibited ±, +, or ++ reactivity, 5th (0.5 wt. %, line 2 of 3 (+)) | Number of examinees who exhibited ±, +, or ++ reactivity, 5th (0.5 wt. %, line 3 of 3 (++)) | Number of examinees who exhibited ±, +, or ++ reactivity, 6th (0.5 wt. %, line 1 of 3 (±)) | Number of examinees who exhibited ±, +, or ++ reactivity, 6th (0.5 wt. %, line 2 of 3 (+)) | Number of examinees who exhibited ±, +, or ++ reactivity, 6th (0.5 wt. %, line 3 of 3 (++)) | Number of examinees who exhibited ±, +, or ++ reactivity, 7th (0.5 wt. %, line 1 of 3 (±)) | Number of examinees who exhibited ±, +, or ++ reactivity, 7th (0.5 wt. %, line 2 of 3 (+)) | Number of examinees who exhibited ±, +, or ++ reactivity, 7th (0.5 wt. %, line 3 of 3 (++)) | Number of examinees who exhibited ±, +, or ++ reactivity, 8th (0.5 wt. %, line 1 of 3 (±)) | Number of examinees who exhibited ±, +, or ++ reactivity, 8th (0.5 wt. %, line 2 of 3 (+)) | Number of examinees who exhibited ±, +, or ++ reactivity, 8th (0.5 wt. %, line 3 of 3 (++)) | Number of examinees who exhibited ±, +, or ++ reactivity, 9th (0.5 wt. %, line 1 of 3 (±)) | Number of examinees who exhibited ±, +, or ++ reactivity, 9th (0.5 wt. %, line 2 of 3 (+)) | Number of examinees who exhibited ±, +, or ++ reactivity, 9th (0.5 wt. %, line 3 of 3 (++)) | Number of examinees who exhibited ±, +, or ++ reactivity, 1st (1 wt. %, line 1 of 3 (±)) | Number of examinees who exhibited ±, +, or ++ reactivity, 1st (1 wt. %, line 2 of 3 (+)) | Number of examinees who exhibited ±, +, or ++ reactivity, 1st (1 wt. %, line 3 of 3 (++)) | Number of examinees who exhibited ±, +, or ++ reactivity, 2nd (1 wt. %, line 1 of 3 (±)) | Number of examinees who exhibited ±, +, or ++ reactivity, 2nd (1 wt. %, line 2 of 3 (+)) | Number of examinees who exhibited ±, +, or ++ reactivity, 2nd (1 wt. %, line 3 of 3 (++)) | Number of examinees who exhibited ±, +, or ++ reactivity, 3rd (1 wt. %, line 1 of 3 (±)) | Number of examinees who exhibited ±, +, or ++ reactivity, 3rd (1 wt. %, line 2 of 3 (+)) | Number of examinees who exhibited ±, +, or ++ reactivity, 3rd (1 wt. %, line 3 of 3 (++)) | Number of examinees who exhibited ±, +, or ++ reactivity, 4th (1 wt. %, line 1 of 3 (±)) | Number of examinees who exhibited ±, +, or ++ reactivity, 4th (1 wt. %, line 2 of 3 (+)) | Number of examinees who exhibited ±, +, or ++ reactivity, 4th (1 wt. %, line 3 of 3 (++)) | Number of examinees who exhibited ±, +, or ++ reactivity, 5th (1 wt. %, line 1 of 3 (±)) | Number of examinees who exhibited ±, +, or ++ reactivity, 5th (1 wt. %, line 2 of 3 (+)) | Number of examinees who exhibited ±, +, or ++ reactivity, 5th (1 wt. %, line 3 of 3 (++)) | Number of examinees who exhibited ±, +, or ++ reactivity, 6th (1 wt. %, line 1 of 3 (±)) | Number of examinees who exhibited ±, +, or ++ reactivity, 6th (1 wt. %, line 2 of 3 (+)) | Number of examinees who exhibited ±, +, or ++ reactivity, 6th (1 wt. %, line 3 of 3 (++)) | Number of examinees who exhibited ±, +, or ++ reactivity, 7th (1 wt. %, line 1 of 3 (±)) | Number of examinees who exhibited ±, +, or ++ reactivity, 7th (1 wt. %, line 2 of 3 (+)) | Number of examinees who exhibited ±, +, or ++ reactivity, 7th (1 wt. %, line 3 of 3 (++)) | Number of examinees who exhibited ±, +, or ++ reactivity, 8th (1 wt. %, line 1 of 3 (±)) | Number of examinees who exhibited ±, +, or ++ reactivity, 8th (1 wt. %, line 2 of 3 (+)) | Number of examinees who exhibited ±, +, or ++ reactivity, 8th (1 wt. %, line 3 of 3 (++)) | Number of examinees who exhibited ±, +, or ++ reactivity, 9th (1 wt. %, line 1 of 3 (±)) | Number of examinees who exhibited ±, +, or ++ reactivity, 9th (1 wt. %, line 2 of 3 (+)) | Number of examinees who exhibited ±, +, or ++ reactivity, 9th (1 wt. %, line 3 of 3 (++)) | Number of examinees who exhibited ±, +, or ++ reactivity, 1st (3 wt. %, line 1 of 3 (±)) | Number of examinees who exhibited ±, +, or ++ reactivity, 1st (3 wt. %, line 2 of 3 (+)) | Number of examinees who exhibited ±, +, or ++ reactivity, 1st (3 wt. %, line 3 of 3 (++)) | Number of examinees who exhibited ±, +, or ++ reactivity, 2nd (3 wt. %, line 1 of 3 (±)) | Number of examinees who exhibited ±, +, or ++ reactivity, 2nd (3 wt. %, line 2 of 3 (+)) | Number of examinees who exhibited ±, +, or ++ reactivity, 2nd (3 wt. %, line 3 of 3 (++)) | Number of examinees who exhibited ±, +, or ++ reactivity, 3rd (3 wt. %, line 1 of 3 (±)) | Number of examinees who exhibited ±, +, or ++ reactivity, 3rd (3 wt. %, line 2 of 3 (+)) | Number of examinees who exhibited ±, +, or ++ reactivity, 3rd (3 wt. %, line 3 of 3 (++)) | Number of examinees who exhibited ±, +, or ++ reactivity, 4th (3 wt. %, line 1 of 3 (±)) | Number of examinees who exhibited ±, +, or ++ reactivity, 4th (3 wt. %, line 2 of 3 (+)) | Number of examinees who exhibited ±, +, or ++ reactivity, 4th (3 wt. %, line 3 of 3 (++)) | Number of examinees who exhibited ±, +, or ++ reactivity, 5th (3 wt. %, line 1 of 3 (±)) | Number of examinees who exhibited ±, +, or ++ reactivity, 5th (3 wt. %, line 2 of 3 (+)) | Number of examinees who exhibited ±, +, or ++ reactivity, 5th (3 wt. %, line 3 of 3 (++)) | Number of examinees who exhibited ±, +, or ++ reactivity, 6th (3 wt. %, line 1 of 3 (±)) | Number of examinees who exhibited ±, +, or ++ reactivity, 6th (3 wt. %, line 2 of 3 (+)) | Number of examinees who exhibited ±, +, or ++ reactivity, 6th (3 wt. %, line 3 of 3 (++)) | Number of examinees who exhibited ±, +, or ++ reactivity, 7th (3 wt. %, line 1 of 3 (±)) | Number of examinees who exhibited ±, +, or ++ reactivity, 7th (3 wt. %, line 2 of 3 (+)) | Number of examinees who exhibited ±, +, or ++ reactivity, 7th (3 wt. %, line 3 of 3 (++)) | Number of examinees who exhibited ±, +, or ++ reactivity, 8th (3 wt. %, line 1 of 3 (±)) | Number of examinees who exhibited ±, +, or ++ reactivity, 8th (3 wt. %, line 2 of 3 (+)) | Number of examinees who exhibited ±, +, or ++ reactivity, 8th (3 wt. %, line 3 of 3 (++)) | Number of examinees who exhibited ±, +, or ++ reactivity, 9th (3 wt. %, line 1 of 3 (±)) | Number of examinees who exhibited ±, +, or ++ reactivity, 9th (3 wt. %, line 2 of 3 (+)) | Number of examinees who exhibited ±, +, or ++ reactivity, 9th (3 wt. %, line 3 of 3 (++))
−: skin reactivity (ICDRG criteria) (within the range of contents 0.5 wt. %, 1 wt. %, 3 wt. %)
0: average reactivity (0.5 wt. %) | average reactivity (1 wt. %) | average reactivity (3 wt. %)

— patent US11197878B2, “Anti-inflammatory composition including novel quercetin-based compound” (AMOREPACIFIC CORPORATION, priority 2017, dated 2021)
